Values after ≈ are worked out from the molar mass of the structure shown. Values joined by “and” are separate entries in the source; they are usually repeats but may differ in a detail not shown here. Equal values may be shown once. Where a name gives a salt, the structure may show the parent alone. Each block holds one compound with its values, some of them ahead of it.
Columns and labels:
[1] = tested on: S. agalactiae; assay: In vitro MIC testing, antibacterial spectrum of activity; type: cell-based
[2] = tested on: E. coli; assay: as above; type: cell-based
[3] = tested on: S. pneumoniae; assay: as above; type: cell-based, Streptococcus pneumoniae; conditions: S. pneumoniae [PSSP] (32 isolates)
[4] = tested on: S. pyogenes; assay: as above; type: cell-based; conditions: S. pyogenes (32 isolates)
[5] = tested on: Streptococcus spp. [Group C]; assay: as above; type: cell-based; conditions: Streptococcus spp. [Group C] (30 isolates)
[6] = Storage stability by HPLC-UV (chemical purity, β-isomer content, total impurity content); type: physicochemical; conditions: for Chemical Purity at 0 days / β-isomer content at 0 days: 0 days (after synthesis); for Chemical Purity at 75 days / β-isomer content at 75 days: stored in glass vial approximately 75 days at ambient conditions; for Chemical Purity at 7 days, 40° C. and 75% RH / β-isomer content at 7 days, 40° C. and 75% RH: storage 7 days at 40° C. and 75% RH
Description: The lower the β-isomer content, the higher the chemical purity of the salt. The β-isomer content is measured after synthesis of the salt and compared with the measured β-isomer content after storage for a designated period of time.
Another measure of chemical purity is defined by the content of other related impurities, by-products or degradation products of the salt, which represents the […] of the compound. The lower the content of total impurities as measured by HPLC, generally, by HPLC-UV, the higher the chemical purity of the salt. The total impurity content is measured after synthesis of the salt and compared with the measured total impurity content after storage for a designated period of time.
In order to determine the stability of Crystalline Mono Hydrochloride Salt, the β-isomer content of the salt was determined by HPLC-UV analysis and compared to the β-isomer content calculated after the salt was stored in an amber glass vial for approximately 75 days at ambient conditions.
The β-isomer content of Comparative Example 2 was also determined by HPLC-UV analysis at 0 days and compared to the β-isomer content calculated after the compound was stored in a clear glass vial for approximately 75 days at ambient conditions.
HPLC-UV and XRPD analysis were conducted on samples of Crystalline Mono Hydrochloride Salt, Crystalline Mesylate Salt and Crystalline Sulfate Salt at 0 days and after storage for 7 days at 40° C. and 75% RH. FIGS. 1, 4 and 7 show the XRPD analysis of the Crystalline Mono Hydrochloride Salt, Crystalline Mesylate Salt and Crystalline Sulfate Salt at 0 days and after storage at 40° C. and 75% RH with the graphs overlaid for comparison.
The results of HPLC-UV analysis for the same samples of Crystalline Mesylate Salt and Crystalline Sulfate Salt are shown in Table 4.

[7] = Advantages and disadvantages of solid forms (hygroscopicity, milling/pressing, storage); type: physicochemical; conditions: for Hygroscopicity: relative humidity (RH)
Description: One measure of the stability of the physical form of the salt is hygroscopicity, which is the propensity of a substance to absorb or adsorb water molecules from the surrounding environment. Whenever moisture can promote degradation, the salt is stable if it is non-hygroscopic or mildly hygroscopic above 70% relative humidity (RH). In preferred embodiments, the salt is non-hygroscopic or mildly hygroscopic above 80% RH, and in more preferred embodiments, the salt is non-hygroscopic or mildly hygroscopic to 90% RH. “Non-hygroscopic or mildly hygroscopic” as used herein refers to a compound at about 40° C. and at an RH of about 75%, existing over about 80% w/w in solid crystalline form, preferably over about 90% w/w in solid crystalline form, that absorbs less than 10% w/w water, and preferably, less than 5% w/w water in 8 hours or less. Hygroscopicity (hygroscopic degree) is calculated based on increase in weight in a compound at comparative points of measurement. Another measure of physical stability is the crystal form of the salt, which may be measured by XPRD. The stability of Crystalline Mono Hydrochloride Salt was compared to the amorphous mono hydrochloride salt of Comparative Example 2.

[8] = Differential scanning calorimetry (DSC); type: physicochemical
Description: DSC analysis as disclosed herein was collected on a TA Instruments Q2000 equipped with a 50 position auto-sampler. The instrument was calibrated for energy and temperature using certified indium. The calibration for thermal capacity was carried out using sapphire. […] A nitrogen purge at 50 ml.min^−1 was maintained over the sample. The instrument control software used was Advantage for Q Series v2.8.0.392 and Thermal Advantage v4.8.3 and the data was analyzed using Universal Analysis v4.4A. […] The observed apparent weight loss is due to instability of the machine. Table 5 below compares the DSC and TGA analysis of the crystalline salts of the present invention with the crystalline free base and Comparative Example 1.

[9] = Thermo-gravimetric analysis (TGA); type: physicochemical
Description: TGA is used to determine changes in weight in relation to change in temperature, which may reveal degradation of the compound and the presence of solvates or hydrates. TGA analysis as disclosed herein was collected on a TA Instruments Q500 TGA equipped with a 16 position auto-sampler. The instrument was temperature calibrated using certified Alumel and Nickel. […] A nitrogen purge at 60 ml.min^−1 was maintained over the sample. The instrument control and data analysis software used was Advantage for Q Series v2.8.0.392 and Thermal Advantage v4.8.3 and the data was analyzed using Universal Analysis v4.4A. […] The observed apparent weight loss is due to instability of the machine. Table 5 below compares the DSC and TGA analysis of the crystalline salts of the present invention with the crystalline free base and Comparative Example 1.

[10] = XRPD analysis of crystal form after storage; type: physicochemical; conditions: 7 days at 40° C. and 75% RH vs 0 days
Description: XRPD analysis as disclosed herein was collected on a Bruker AXS C2 GADDS diffractometer using Cu Kα radiation (40 kV, 40 mA), automated XYZ stage, laser video microscope for auto-sample positioning and a HiStar 2-dimensional area detector. X-ray optics consisted of a single Gbbel multilayer mirror coupled with a pinhole collimator of 0.3 mm. The software used for data collection was GADDS for WNT 4.1.16 and the data was analyzed and presented using Diffrac Plus EVA v 9.0.0.2 or v 13.0.0.2. Samples were analyzed under ambient conditions as flat plate specimens using powder as received. Approximately 1-2 mg of the sample was lightly pressed on a glass slide to obtain a flat surface. Samples analyzed under non-ambient conditions were mounted on a silicon wafer with a heat conducting compound. The sample was then heated to the appropriate temperature at approximately 20° C.min^−1 and subsequently held isothermally for approximately 1 minute before data collection was initiated.
HPLC-UV and XRPD analysis were conducted on samples of Crystalline Mono Hydrochloride Salt, Crystalline Mesylate Salt and Crystalline Sulfate Salt at 0 days and after storage for 7 days at 40° C. and 75% RH. FIGS. 1, 4 and 7 show the XRPD analysis of the Crystalline Mono Hydrochloride Salt, Crystalline Mesylate Salt and Crystalline Sulfate Salt at 0 days and after storage at 40° C. and 75% RH with the graphs overlaid for comparison. […] The changes shown in the figure are in intensity and resolution rather than in peak position, which, if present, would indicate change in crystal form. Accordingly, Crystalline Mono Hydrochloride Salt and Crystalline Mesylate Salt are physically stable, as shown by FIGS. 1 and 4.

[11] = from about 30° C. to about 200° C.
[12] = from about 200° C. to about 250° C.

Compound: CN(C)[C@@H]1C(O)=C(C(N)=O)C(=O)[C@@]2(O)C(O)=C3C(=O)c4c(O)cccc4[C@@](C)(O)[C@H]3C[C@@H]12 [Tetracycline, tetracycline]
MIC Range ([1]; S. agalactiae [tetR] (7 isolates)): 16 to 64 µg/mL | MIC Range ([1]; S. agalactiae [tetS] (3 isolates)): 0.25-0.25 μg/mL | MIC Range ([2]; E. coli [tetS] (7 isolates)): 1 to 4 µg/mL

Compound: Penicillin
MIC50 [3]: ≤0.015 µg/mL | MIC Range [3]: ≤0.015 to 0.12 µg/mL | MIC50 [4]: ≤0.015 µg/mL | MIC90 [4]: ≤0.015 µg/mL | MIC Range [4]: ≤0.015 to 0.25 µg/mL | MIC Range ([1]; S. agalactiae (31 isolates)): ≤0.015 to 2 µg/mL | MIC50 [5]: ≤0.015 µg/mL | MIC90 [5]: ≤0.015 µg/mL | MIC Range [5]: ≤0.015 to 0.03 µg/mL

Compound: CON(C)Cc1ccc(O)c2c1C[C@H]1C[C@H]3[C@H](N(C)C)C(O)=C(C(N)=O)C(=O)[C@@]3(O)C(O)=C1C2=O [Comparative Example 2, (4S,4aS,5aR,12aS)-4-dimethylamino-3,10,12,12a-tetrahydroxy-7-[(methoxy(methyl)amino)-methyl]-1,11-dioxo-1,4,4a,5,5a,6,11,12a-octahydro-naphthacene-2-carboxylic acid amide]
Chemical Purity at 0 days ([6]; HPLC-UV): 94.3% | β-isomer content at 0 days ([6]; HPLC-UV): 4.4% | Chemical Purity at 75 days ([6]; HPLC-UV): 90.4% | β-isomer content at 75 days ([6]; HPLC-UV): 7.8% | increase of β-isomer content after storage ([6]; storage for 75 days at ambient conditions vs 0 days): over 80% | glass transition [7]: High glass transition (166° C.) | β-isomer content upon storage at 63% RH ([7]; 63% RH): Increase in β-isomer content upon | Change in form (amorphous to crystalline) ([7]; above 75% RH): Change in form (from amorphous | β-isomer content upon storage under ambient conditions [7]: Increase in β-isomer content upon | rate of β-isomer formation upon exposure to solvent ([7]; compared to Crystalline Mono Hydrochloride Salt): Faster rate of β-isomer formation | form or β-isomer content upon milling or pressing [7]: Increase in β-isomer content upon | Hygroscopicity [7]: Hygroscopic above 70% RH | crystallization upon storage and heat/cool cycle ([7]; storage and heat/cool cycle): Stable to crystallization upon

Compound: CON(C)Cc1ccc(O)c2c1C[C@H]1C[C@H]3[C@H](N(C)C)C(O)=C(C(N)=O)C(=O)[C@@]3(O)C(O)=C1C2=O [Crystalline Free Base, (4S,4aS,5aR,12aS)-4-dimethylamino-3,10,12,12a-tetrahydroxy-7-[(methoxy(methyl)amino)-methyl]-1,11-dioxo-1,4,4a,5,5a,6,11,12a-octahydro-naphthacene-2-carboxylic acid amide]
DSC endothermic peak [8]: 175 °C (ΔH 72 J · g^−1) | TGA weight loss ([9]; from about 30° C. to decomposition at less than 220° C.): 15% weight loss from about 30 °C

Compound: CON(C)Cc1ccc(O)c2c1C[C@H]1C[C@H]3[C@H](N(C)C)C(O)=C(C(N)=O)C(=O)[C@@]3(O)C(O)=C1C2=O [Crystalline Mesylate Salt, (4S,4aS,5aR,12aS)-4-dimethylamino-3,10,12,12a-tetrahydroxy-7-[(methoxy(methyl)amino)-methyl]-1,11-dioxo-1,4,4a,5,5a,6,11,12a-octahydro-naphthacene-2-carboxylic acid amide]
Chemical Purity at 0 days ([6]; HPLC-UV): 92% | β-isomer content at 0 days ([6]; HPLC-UV): 3% | Chemical Purity at 7 days, 40° C. and 75% RH ([6]; HPLC-UV): 98% | β-isomer content at 7 days, 40° C. and 75% RH ([6]; HPLC-UV): 2% | crystal form by XRPD after storage [10]: no change in crystal form | TGA weight loss [9, 11]: 3% weight loss from about 30 °C to | TGA weight loss [9, 12]: 7% weight loss from about 200 °C

MIC50 ([2]; Escherichia coli, read-out: MIC50): 32 µg/mL (≈ 80.7 µM)
Compound: CC(=O)OCC1=C(C(=O)O)N2C(=O)[C@@H](NC(=O)Cc3cccs3)[C@H]2SC1 [Cephalothin]

Compound: CON(C)Cc1ccc(O)c2c1C[C@H]1C[C@H]3[C@H](N(C)C)C(O)=C(C(N)=O)C(=O)[C@@]3(O)C(O)=C1C2=O [Crystalline Sulfate Salt, (4S,4aS,5aR,12aS)-4-dimethylamino-3,10,12,12a-tetrahydroxy-7-[(methoxy(methyl)amino)-methyl]-1,11-dioxo-1,4,4a,5,5a,6,11,12a-octahydro-naphthacene-2-carboxylic acid amide]
Chemical Purity at 0 days ([6]; HPLC-UV): 88% | β-isomer content at 0 days ([6]; HPLC-UV): 9% | Chemical Purity at 7 days, 40° C. and 75% RH ([6]; HPLC-UV): 91% | β-isomer content at 7 days, 40° C. and 75% RH ([6]; HPLC-UV): 9% | crystal form by XRPD after storage [10]: increased crystalline content | TGA weight loss [9, 11]: 3% weight loss from about 30 °C to | TGA weight loss [9, 12]: 14% weight loss from about 200 °C

Compound: CON(C)Cc1ccc(O)c2c1C[C@H]1C[C@H]3[C@H](N(C)C)C(O)=C(C(N)=O)C(=O)[C@@]3(O)C(O)=C1C2=O [Crystalline Mono Hydrochloride Salt, (4S,4aS,5aR,12aS)-4-dimethylamino-3,10,12,12a-tetrahydroxy-7-[(methoxy(methyl)amino)-methyl]-1,11-dioxo-1,4,4a,5,5a,6,11,12a-octahydro-naphthacene-2-carboxylic acid amide]
total impurity content at 0 days ([6]; HPLC-UV, 0 days): 4 % peak area | Chemical Purity at 0 days ([6]; HPLC-UV): 93.8% and 95.8% | β-isomer content at 0 days ([6]; HPLC-UV): 3.8% | Chemical Purity at 75 days ([6]; HPLC-UV): 94.8% | β-isomer content at 75 days ([6]; HPLC-UV): 3.8% | total impurity content after storage ([6]; about 6 months at about 40° C. and about 75% RH): 6 % peak area | β-isomer content upon storage under ambient conditions [7]: No increase in β-isomer content | form or β-isomer content upon milling or pressing [7]: No change in form or β-isomer | crystallinity upon pressing and milling ([7]; pressing and milling): Some loss of crystallinity upon | Hygroscopicity [7]: Non-hygroscopic to 90% RH | crystal form by XRPD after storage [10]: no change in crystal form | TGA weight loss [9, 11]: 3% weight loss from about 30 °C to | TGA weight loss [9, 12]: 14% weight loss from about 200 °C

Reference: patent US20200024223A1, “CRYSTALLINE SALTS OF (4S,4AS,5AR,12AS)-4-DIMETHYLAMINO-3,10,12,12A-TETRAHYDROXY-7-[(METHOXY(METHYL)AMINO)-METHYL]-1,11-DIOXO-1,4,4A,5,5A,6,11,12A-OCTAHYDRO-NAPHTHACENE-2-CARBOXYLIC ACID AMIDE AND METHODS OF USING THE SAME” (priority 2011, published 2020)
